We go through 3 compounds from article PMC9699089 (Pathogens, 2022).

The term ΔTm denotes the shift of the melting midpoint relative to a reference. The IC50 is the point on the concentration scale where inhibition reaches its midpoint. By CC50 is commonly meant the concentration giving 50% cytotoxicity. A low value points to harm at low concentration.

In data set [1] the test system is DK66 (DNA, duplex) CGCGAATTCGCG
Description: native ESI-MS. The conditions noted are these: 1 mM KCl; 100 mM TMAA; 10 µM oligonucleotide; no binding detected at 20 µM ligand.

For data set [2], the system named is FPf1T (DNA, G4) GGGTTTAGGGTTTAGGGTTTAGGG
The data set can be described thus: FRET melting. As to conditions: 10 mM KCl, 90 mM LiCl; 10 mM lithium cacodylate pH 7.2; 0.2 µM oligonucleotide, 2 µM compound.

For data set [3], the system named is FPf8T (DNA, G4) GGGTTCAGGGTTCAGGGTTCAGGG
Description: FRET melting. The conditions noted are these: 10 mM KCl, 90 mM LiCl; 10 mM lithium cacodylate pH 7.2; 0.2 µM oligonucleotide, 2 µM compound.

In data set [4] the test system is F21T (DNA, G4) GGGTTAGGGTTAGGGTTAGGG
Description: FRET melting. The conditions noted are these: 10 mM KCl, 90 mM LiCl, 10 mM lithium cacodylate pH 7.2, 0.2 µM oligonucleotide.

For data set [5], the system named is Pf1 (DNA, G4) GGGTTTAGGGTTTAGGGTTTAGGG
The data set can be described thus: native ESI-MS. As to conditions: 1 mM KCl; 100 mM TMAA; 10 µM oligonucleotide; no binding detected at 20 µM ligand.

For data set [6], the system named is 24nonG4 (DNA, single strand) TGGGATGCGACAGAGAGGACGGGA
The data set can be described thus: native ESI-MS. The conditions noted are these: 1 mM KCl; 100 mM TMAA; 10 µM oligonucleotide; no binding detected at 20 µM ligand.

The subject of data set [7] is FtrypBT (FEBR1T) (DNA, G4) GGGCAGGGGGTGATGGGGAGGAGCCAGGG
Description: FRET melting. As to conditions: 10 mM KCl, 90 mM LiCl; 10 mM lithium cacodylate pH 7.2; 0.2 µM oligonucleotide, 2 µM compound.

For data set [8], the system named is Pf8 (DNA, G4) GGGTTCAGGGTTCAGGGTTCAGGG
Description: native ESI-MS. As to conditions: 1 mM KCl; 100 mM TMAA; 10 µM oligonucleotide, 20 µM ligand.

For data set [9], the system named is 24TTG (DNA, G4) TTGGGTTAGGGTTAGGGTTAGGGA
Description: native ESI-MS. As to conditions: 1 mM KCl; 100 mM TMAA; 10 µM oligonucleotide; no binding detected at 20 µM ligand.

For data set [10], the system named is L. donovani (MHOM/IN/00/DEVI) promastigotes. Description: In vitro antileishmanial activity on promastigotes, MTT assay. In kind it is cell-based. The conditions noted are these: Leishmania donovani, 72 h incubation, mean +/- SD of three independent experiments. The method, boiled down:
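Log-phase L. donovani MHOM/IN/00/DEVI promastigotes at 10^6 parasites/mL in Schneider's medium with 20% FCS were exposed to compounds for 72 h at 27 °C, final DMSO under 0.5%. Viability was read by MTT reduction over 4 h, absorbance 570 nm (630 nm reference). IC50 came from regression, three independent experiments.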
On the technique in general: Tetrazolium dyes change colour on reduction, which living cells bring about.

The test system of data set [11] is T. brucei brucei AnTat 1.9. Description: In vitro antitrypanosomal activity, Alamar Blue assay. In kind it is cell-based, Trypanosoma brucei brucei. Put shortly: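 Bloodstream T. brucei brucei AnTat 1.9 cultured in supplemented MEM with Earle's salts and exposed to compounds in duplicate for 69 h at 37 °C. Alamar Blue then added for 5 h, with fluorescence read at ex 530/em 590 nm.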
Background: The colour change of resazurin is a common sign of viable cells or microbes.

In another data set the test system is human HepG2 cells. Description: Cytotoxicity evaluation, MTT assay. As to conditions: HepG2 cells; 72 h; mean +/- SD of three independent experiments. Type of data set: cell-based. How it is done: These cells are a commonly used human hepatocarcinoma-derived cell line that has characteristics similar to those of primary hepatocytes. These cells express many hepatocyte-specific metabolic enzymes, thus enabling the cytotoxicity of tested product metabolites to be evaluated. […] Duplicate assays were performed for each sample. Each well was microscopically examined for precipitate formation before the medium was aspirated from the wells. After aspiration, 100 µL of MTT solution (0.5 mg/mL in medium without FCS) were then added to each well. […] The MTT solution was removed, and DMSO (100 µL) was added to dissolve the resulting blue formazan crystals. Plates were shaken vigorously (300 rpm) for 5 min. The absorbance was measured at 570 nm with 630 nm as reference wavelength in a BIO-TEK ELx808 Absorbance Microplate Reader. DMSO was used as blank and doxorubicin (Sigma Aldrich) as positive control. Cell viability was calculated as percentage of control (cells incubated without compound). The CC50 was determined from the dose-response curve using TableCurve 2D V5.0 software (Systat Software, Palo Alto, CA, USA).

Data set [12] has as its system FdxT (DNA, hairpin, hexaethyleneglycol linker between position 10 and 11) TATAGCTATATATAGCTATA
Description: FRET melting. The conditions noted are these: 10 mM KCl, 90 mM LiCl; 10 mM lithium cacodylate pH 7.2; 0.2 µM oligonucleotide, 0.5 µM compound.

In data set [13] the test system is Trypanosoma 9 and 11 chromosomic sequence FTrypBT (FEBR1T) G-quadruplex. Description: FRET melting assay, FtrypBT. Type of data set: binding, Trypanosoma brucei brucei. The conditions noted are these: tested at 0.5 μM, oligonucleotide 0.2 μM, K+ conditions. The method, boiled down:
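Dual-labelled FAM/TAMRA oligonucleotides (0.2 µM) pre-folded in 10 mM lithium cacodylate pH 7.2, 10 mM KCl, 90 mM LiCl, with 2 µM compound. FAM emission (ex 492/em 516 nm) followed from 25 to 95 °C at 1 °C/min; Tm is the temperature at normalized emission 0.5, compared with and without compound.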

Data set [14] has as its system Plasmodium telomeric sequence FPf8T G-quadruplex. Description: FRET melting assay, FPf8T. Type of data set: binding, Plasmodium falciparum. As to conditions: tested at 0.5 μM, oligonucleotide 0.2 μM, K+ conditions.
Data set [15] relates to human duplex sequence FdxT. The data set can be described thus: FRET melting assay, duplex control FdxT. In kind it is binding. The conditions noted are these: tested at 0.5 μM, oligonucleotide 0.2 μM, K+ conditions.
The test system of data set [16] is human telomeric sequence F21T G-quadruplex. Description: FRET melting assay, F21T. In kind it is binding. The conditions noted are these: tested at 0.5 μM, oligonucleotide 0.2 μM, K+ conditions.
For data set [17], the system named is Plasmodium telomeric sequence FPf1T G-quadruplex. The data set can be described thus: FRET melting assay, FPf1T. As to conditions: tested at 0.5 μM, oligonucleotide 0.2 μM, K+ conditions. Type of data set: binding, Plasmodium falciparum.

Consider `c1ccc(-c2cc(CNCCc3ccccn3)nc3c2ccc2c(-c4ccccc4)cc(CNCCc4ccccn4)nc23)cc1`, for which the binding result in [1], in [5], in [6] and in data set [9] was “no” each time. Besides, the ΔTm in data set [2] turned out to be 1.3 ± 0.2 °C; in data set [3] it was 1.0 ± 0.2 °C; in [4] (2 µM compound), 1.0 ± 0.5 °C; in data set [7], 1.8 ± 0.6 °C. In [8], this compound displayed a Kd1 of 83 µM.

Consider `N=C(N)c1ccc(OCCCCCOc2ccc(C(=N)N)cc2)cc1` [Pentamidine, reference compound], for which the half-inhibitory concentration (IC50) in [10] was 5500 ± 800 nM; in [11] (Trypanosoma brucei, slender bloodstream trypomastigotes, AnTat 1.9 strain, mean +/- SD of three independent experiments, read-out: Trypanosoma brucei brucei IC50 Values Trypanos Antat 1.9) it was 0.2 ± 0.06 nM. Moreover, in [11] (SI = CC50 HepG2 / IC50 Trypanosoma brucei brucei), the “Selectivity Index HepG2/Tryp.” value is given as 11,500. In the data set with human HepG2 cells, the CC50 came out at 2300 ± 500 nM.

As for `C[n+]1cc(NC(=O)c2ccc3ccc4ccc(C(=O)Nc5cc6ccccc6[n+](C)c5)nc4c3n2)cc2ccccc21` [PhenDC3], the ΔTm in [12] is 0.1 ± 0.2 °C; in data set [4] (0.5 µM compound), 26.3 ± 0.1 °C. Moreover, the “ΔTm FtrypBT” value in [13] was found to be 19.2 °C. The “ΔTm FPf8T” value in data set [14] was determined as 24.7 °C. Besides, the “ΔTm FdxT” value in [15] was found to be 0.1 °C. Besides, the “ΔTm F21T” value in data set [16] came out at 26.3 °C. The “ΔTm FPf1T” value in data set [17] turned out to be 24.6 °C.
